Drawing on patent US9550751B2, “Processes for the preparation of pesticidal compounds” (Dow AgroSciences LLC, priority 2013, dated 2017), this text covers mortality for three compounds.

Counter-ions that a name gives are not always drawn. Like-named read-outs stand apart in the source and are kept apart here.

The subject of assay [1] is Sweetpotato Whitefly Crawler (Bemisia tabaci) (BEMITA). Description: Bioassays on Sweetpotato Whitefly Crawler, foliar spray on cotton plants. The class given is in vivo. The note with it: read-out: BEMITA rating (% Control of Mortality). The protocol: Cotton plants grown in 3-inch pots, with 1 small (3-5 cm) true leaf, were used at test substrate. The plants were placed in a room with whitely adults. Adults were allowed to deposit eggs for 2-3 days. After a 2-3 day egg-laying period, plants were taken from the adult whitefly room. Adults were blown off leaves using a hand-held Devilbliss sprayer (23 psi). Plants with egg infestation (100-300 eggs per plant) were placed in a holding room for 5-6 days at 82° F. and 50% RH for egg hatch and crawler stage to develop. Four cotton plants were used for each treatment. Compounds (2 mg) were dissolved in 1 mL of acetone solvent, forming stock solutions of 2000 ppm. The stock solutions were diluted 10× with 0.025% Tween 20 in water to obtain a test solution at 200 ppm. A hand-held Devilbliss sprayer was used for spraying a solution to both sides of cotton leaf until runoff. Reference plants (solvent check) were sprayed with the diluent only. Treated plants were held in a holding room for 8-9 days at approximately 82° F. and 50% RH prior to grading. Evaluation was conducted by counting the number of live nymphs per plant under a microscope.

Assay [2] has as its system Green Peach Aphid (Myzus persicae) (MYZUPE). Description: Bioassays on Green Peach Aphid (GPA), foliar spray on cabbage seedlings. The class given is in vivo. The note with it: 72 h, read-out: MYZUPE rating (% Control of Mortality). The protocol: Several molecules disclosed herein were tested against GPA using procedures described below.
Cabbage seedling grown in 3-in pots, with 2-3 small (3-5 cm) true leaves, were used as test substrate. The seedlings were infested with […] (wingless adult and nymph stages) one day prior to chemical application. Four pots with individual seedlings were used for each treatment. Test compounds (2 mg) were dissolved in 2 mL of acetone/MeOH (1:1) solvent, forming stock solutions of 1000 ppm test compound. The stock solutions were diluted 5× with 0.025% Tween 20 in water to obtain the solution at 200 ppm test compound. A hand-held aspirator-type sprayer was used for spraying a solution to both sides of the cabbage leaves until runoff. Reference plants (solvent check) were sprayed with the diluent only containing 20% by volume acetone/MeOH (1:1) solvent. Treated plants were held in a holding room for three days at approximately 25° C. and ambient relative humidity (RH) prior to grading. Evaluation was conducted by counting the number of live aphids per plant under a microscope. Percent Control was measured by using Abbott's correction formula (W. S. Abbott, “A Method of Computing the Effectiveness of an Insecticide” J. Econ. Entomol 18 (1925), pp. 265-267) as follows. Corrected % Control=100*(X−Y)/X • where • X=No. of live aphids on solvent check plants and • Y=No. of live aphids on treated plants
The results are indicated in the table entitled “Table 1: GPA (MYZUPE) and sweetpotato whitefly-crawler (BEMITA) Rating Table”.

For `Nc1c[nH]nc1Cl` [Compound 1a, 3-chloro-1H-pyrazol-4-amine hydrochloride], the mortality at 200 ppm in assay [1] and in assay [2] was 0 to 80% each time. In the case of `CCN(C(=O)CCSCCC(F)(F)F)c1c[nH]nc1Cl` [Compound 4.7, N-(3-chloro-1H-pyrazol-4-yl)-N-ethyl-3-((3,3,3-trifluoropropyl)thio)propanamide], the mortality at 200 ppm in assay [2] (200 ppm spray on cabbage seedlings, graded after three days, Abbott's correction, live aphids) was under 0%. On to `CCNc1c[nH]nc1Cl` [Compound 7a, 3-Chloro-N-ethyl-1H-pyrazol-4-amine], for which, in assay [2], the mortality at 200 ppm is under 0%.
